What was measured:
[1] = molecular target: T1, 5-hydroxytryptamine receptor 1A (Homo sapiens, UniProt P08908); assay: biochemical; assay type: cell-based, HeLa
T1 sequence (P08908 whole entry): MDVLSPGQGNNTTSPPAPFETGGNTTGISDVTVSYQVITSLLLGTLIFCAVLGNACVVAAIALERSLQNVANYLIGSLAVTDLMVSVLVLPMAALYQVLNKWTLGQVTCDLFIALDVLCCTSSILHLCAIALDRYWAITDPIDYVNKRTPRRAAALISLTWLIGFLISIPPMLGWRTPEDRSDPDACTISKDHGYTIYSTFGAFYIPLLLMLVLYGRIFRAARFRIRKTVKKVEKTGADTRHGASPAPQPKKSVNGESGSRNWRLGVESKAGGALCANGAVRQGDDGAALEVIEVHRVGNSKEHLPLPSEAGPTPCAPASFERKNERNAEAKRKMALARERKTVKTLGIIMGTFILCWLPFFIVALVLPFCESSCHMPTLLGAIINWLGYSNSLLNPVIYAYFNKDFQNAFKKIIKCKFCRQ
Description: Displacement of [3H]-8-OH-DPAT from human 5HT1A receptor expressed in HeLa cells

[2] = in vivo; conditions: rat, po
Description: Oral bioavailability in rat

[3] = molecular target: 5-hydroxytryptamine receptor 2A (Homo sapiens, UniProt P28223)
Description: Binding affinity to human 5HT2A receptor

[4] = molecular target: D(2) dopamine receptor (Homo sapiens, UniProt P14416); assay: biochemical; assay type: cell-based, CHO
Description: Displacement of [3H]Spiperone from human dopamine D2L receptor expressed in CHO cells

[5] = organism: Mus musculus; assay: animal or person; conditions: po, read-out: MED
Description: Antipsychotic activity in po dosed mouse assessed as inhibition of spontaneous locomotor activity

[6] = organism: Mus musculus; conditions: in vivo
Description: Induction of catalepsy in mouse

[7] = organism: Mus musculus; assay type: functional, Brain
Description: In vivo intrinsic activity at D2 receptor in sc dosed mouse brain assessed as inhibition of gamma-butyrolactone-induced increase in DOPA synthesis

[8] = in vivo; conditions: rhesus monkey, iv, 1 mg/kg
Description: Volume of distribution at steady state in rhesus monkey at 1 mg/kg, iv and 3 mg/kg, po

[9] = in vivo; conditions: rat, iv, 1 mg/kg
[10] = in vivo; conditions: rhesus monkey, po, 3 mg/kg
[11] = organism: Mus musculus; assay type: functional, Brain; remark: listed apart in the source
Description: In vivo intrinsic activity at D2 receptor in po dosed mouse brain assessed as inhibition of gamma-butyrolactone-induced increase in DOPA synthesis

[12] = in vivo; conditions: rat, po, 3 mg/kg
[13] = organism: Rattus norvegicus; assay: animal or person; assay type: functional; conditions: po
[14] = organism: Rattus norvegicus; assay: animal or person; assay type: functional; conditions: po; remark: listed apart in the source
[15] = in vivo; conditions: rat, po, 3 mg/kg; remark: listed apart in the source
[16] = in vivo; conditions: rat, po, 3 mg/kg; remark: listed apart in the source
[17] = in vivo; conditions: rat, iv, 1 mg/kg; remark: listed apart in the source
Description: Half life in rat at 1 mg/kg, iv

[18] = organism: Rattus norvegicus; assay type: functional
[19] = in vivo; conditions: rhesus monkey, po, 3 mg/kg; remark: listed apart in the source
[20] = in vivo; conditions: rhesus monkey, iv, 1 mg/kg; remark: listed apart in the source
Description: Half life in rhesus monkey at 1 mg/kg, iv

[21] = in vivo; conditions: rat, iv, 1 mg/kg; remark: listed apart in the source
Description: Volume of distribution at steady state in rat at 1 mg/kg, iv and 3 mg/kg, po

[22] = in vivo; conditions: rhesus monkey, iv, 1 mg/kg; remark: listed apart in the source
[23] = in vivo; conditions: rhesus monkey, po, 3 mg/kg; remark: listed apart in the source

Chain of 5-hydroxytryptamine receptor 2A (P28223 whole entry): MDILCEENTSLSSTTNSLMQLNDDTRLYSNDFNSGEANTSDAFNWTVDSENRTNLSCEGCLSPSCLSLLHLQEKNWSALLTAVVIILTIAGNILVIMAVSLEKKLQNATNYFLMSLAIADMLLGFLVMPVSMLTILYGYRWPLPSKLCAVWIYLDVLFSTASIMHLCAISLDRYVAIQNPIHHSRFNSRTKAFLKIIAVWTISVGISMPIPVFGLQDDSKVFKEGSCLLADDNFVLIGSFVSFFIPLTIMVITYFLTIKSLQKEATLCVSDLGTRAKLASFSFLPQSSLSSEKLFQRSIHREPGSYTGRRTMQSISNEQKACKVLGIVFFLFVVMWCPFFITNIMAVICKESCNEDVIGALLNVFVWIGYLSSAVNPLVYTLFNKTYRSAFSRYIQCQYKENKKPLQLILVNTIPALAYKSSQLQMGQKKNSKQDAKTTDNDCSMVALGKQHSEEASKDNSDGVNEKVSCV
Chain of D(2) dopamine receptor (P14416 whole entry): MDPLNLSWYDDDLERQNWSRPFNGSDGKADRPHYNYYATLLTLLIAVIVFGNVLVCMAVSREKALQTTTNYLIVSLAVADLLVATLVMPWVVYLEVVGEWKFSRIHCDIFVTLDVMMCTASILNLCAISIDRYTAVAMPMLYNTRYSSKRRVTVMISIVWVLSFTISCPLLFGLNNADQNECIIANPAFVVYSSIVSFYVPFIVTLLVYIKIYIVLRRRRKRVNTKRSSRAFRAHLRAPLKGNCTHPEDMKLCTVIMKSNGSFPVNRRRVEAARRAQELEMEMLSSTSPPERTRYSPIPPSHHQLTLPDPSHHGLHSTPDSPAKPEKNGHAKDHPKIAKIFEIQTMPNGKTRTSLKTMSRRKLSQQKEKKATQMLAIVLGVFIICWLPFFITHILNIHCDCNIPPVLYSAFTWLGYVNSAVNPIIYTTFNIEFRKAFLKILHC

Compound | Ki [1] | Ki [3] | other results
O=C1CCc2ccc(CCCCCN3CCN(c4cccc(Cl)c4Cl)CC3)nc2N1 | 11.4 nM | 0.79 nM | bioavailability [2]: 6%
O=C1CCc2ccc(OCCCCN3CCN(c4cccc(Cl)c4Cl)CC3)nc2N1 | 17.7 nM | 0.13 nM | bioavailability [2]: 23%
O=c1ccc2ccc(OCCCCN3CCN(c4cccc(Cl)c4Cl)CC3)nc2[nH]1 | 14 nM | 1.6 nM | –
O=c1ccc2cnc(OCCCCN3CCN(c4cccc(Cl)c4Cl)CC3)cc2[nH]1 | 40.7 nM | 2.9 nM | –
O=c1ccc2cnc(OCCCCN3CCN(c4cccc(Cl)c4Cl)CC3)nc2[nH]1 | 52.7 nM | 3.2 nM | –
O=C1CCc2ccc(OCCCCN3CCN(c4ccccc4Cl)CC3)nc2N1 | 4.6 nM | 15.9 nM | –
O=C1CCc2ccc(OCCCCN3CCN(c4cccc(F)c4Cl)CC3)nc2N1 | 1.7 nM | 31.2 nM | –
Cc1cccc(N2CCN(CCCCOc3ccc4c(n3)NC(=O)CC4)CC2)c1Cl | – | 0.5 nM | –
Cc1ccccc1N1CCN(CCCCOc2ccc3c(n2)NC(=O)CC3)CC1 | – | 50.9 nM | –
Cc1cccc(N2CCN(CCCCOc3ccc4c(n3)NC(=O)CC4)CC2)c1C | – | 0.35 nM | –
Cc1c(Cl)cccc1N1CCN(CCCCOc2ccc3c(n2)NC(=O)CC3)CC1 | – | 1.5 nM | –
O=C1CCc2ccc(OCCCCN3CCN(c4cccc(Cl)c4F)CC3)nc2N1 | 1.2 nM | 10.4 nM | –
O=C1CCc2ccc(OCCCCN3CCN(c4cccc(C(F)(F)F)c4Cl)CC3)nc2N1 | – | 12 nM | –
O=C1CCc2ccc(OCCCCN3CCN(c4cccc(Cl)c4C(F)(F)F)CC3)nc2N1 | 3.5 nM | 1.4 nM | Ki [4]: 3 nM
O=C1CCc2ccc(OCCCCN3CCN(c4cccc5c4CCC5)CC3)nc2N1 | 6.3 nM | 0.16 nM | –
O=C1CCc2ccc(OCCCCN3CCN(c4cccc5c4CCCC5)CC3)nc2N1 | 28 nM | 0.09 nM | –
O=C1CCc2ccc(OCCCCN3CCN(c4cccc5c4CCCO5)CC3)nc2N1 | 0.78 nM | 1.3 nM | Ki [4]: 1 nM
O=C1CCc2ccc(OCCCCN3CCN(c4cccc5c4OCCC5)CC3)nc2N1 | 1.1 nM | 0.19 nM | Ki [4]: 0.71 nM
O=C1CCc2ccc(OCCCCN3CCN(c4c(F)ccc5ccccc45)CC3)nc2N1 | 0.84 nM | 6.7 nM | –
O=C1CCc2ccc(OCCCCN3CCN(c4cc(F)cc5ccccc45)CC3)nc2N1 | 3.3 nM | 1.9 nM | –
O=C1CCc2ccc(OCCCCN3CCN(c4ccc(F)c5ccccc45)CC3)nc2N1 | – | 11.7 nM | –
O=C1CCc2ccc(OCCCCN3CCN(c4cccc5c(F)cccc45)CC3)nc2N1 | 3 nM | 3.3 nM | –
O=C1CCc2ccc(OCCCCN3CCN(c4cccc5cc(F)ccc45)CC3)nc2N1 | 1.2 nM | 3.5 nM | –
O=C1CCc2ccc(OCCCCN3CCN(c4cccc5ccc(F)cc45)CC3)nc2N1 | 1.1 nM | 0.28 nM | Ki [4]: 1.2 nM
O=C1CCc2ccc(OCCCCN3CCN(c4cccc5cccc(F)c45)CC3)nc2N1 | 0.77 nM | 0.67 nM | Ki [4]: 1.7 nM
O=c1ccc2ccc(OCCCCN3CCN(c4cccc5ccccc45)CC3)nc2[nH]1 | – | – | minimal effective dose [5]: 1 mg/kg; MED [6]: > 30 mg/kg; inhibition (INH) [7]: 45%
O=C1CCc2ccc(OCCCCN3CCN(c4cccc5ccccc45)CC3)nc2N1 [PF-00217830] | 3.7 nM | 0.14 nM | Vd [8]: 2.6 L/kg; clearance [9]: 14.9 mL/min/kg; Tmax [10]: 5 h; inhibition (INH) [11]: 46%; Cmax [12]: 202 ng/mL; inhibition in vivo at 0.3 mg/kg [13]: 31%; inhibition in vivo at 1 mg/kg [14]: 78%; bioavailability [15]: 19.2%; Tmax [16]: 1.2 h; half-life [17]: 6.8 h; minimal effective dose [5]: 0.3 mg/kg; inhibition (INH) [18]: 78%; Cmax [19]: 96 ng/mL; half-life [20]: 13.6 h; Vd [21]: 1.1 L/kg; clearance [22]: 5.8 mL/min/kg; bioavailability [23]: 20.5%; MED [6]: > 10 mg/kg

Reference: ChEMBL document CHEMBL1773056 (Bioorg Med Chem Lett, 2011)
